Results as given in patent US11878965B2, “Inhibitors of peptidylarginine deiminases” (Gilead Sciences, Inc., priority 2020, dated 2024).

Molecular target: human PAD4 (Homo sapiens (Human), UniProt Q9UM07)
Test: In Vitro PAD4 BAEE Biochemical Assay
Conditions: geometric mean of multiple experiments
How it was run: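 Deimination of BAEE substrate (3 mM) measured as ammonia via o-phthalaldehyde–DTT isoindole fluorescence, 405/535 nm. Tag-free bacterially expressed human PAD4 at 5 nM with 2 mM calcium chloride, pH 7.6 MOPS buffer, 30 min compound preincubation then 2 h reaction, both at 25 °C.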

[1] = human PAD4, BAEE substrate, 5 nM PAD4, 2 mM calcium chloride, 3 mM BAEE
[2] = recombinant PAD4 5 nM, 2 mM calcium chloride, 3 mM BAEE substrate

Sequence of human PAD4 (Q9UM07 2-663): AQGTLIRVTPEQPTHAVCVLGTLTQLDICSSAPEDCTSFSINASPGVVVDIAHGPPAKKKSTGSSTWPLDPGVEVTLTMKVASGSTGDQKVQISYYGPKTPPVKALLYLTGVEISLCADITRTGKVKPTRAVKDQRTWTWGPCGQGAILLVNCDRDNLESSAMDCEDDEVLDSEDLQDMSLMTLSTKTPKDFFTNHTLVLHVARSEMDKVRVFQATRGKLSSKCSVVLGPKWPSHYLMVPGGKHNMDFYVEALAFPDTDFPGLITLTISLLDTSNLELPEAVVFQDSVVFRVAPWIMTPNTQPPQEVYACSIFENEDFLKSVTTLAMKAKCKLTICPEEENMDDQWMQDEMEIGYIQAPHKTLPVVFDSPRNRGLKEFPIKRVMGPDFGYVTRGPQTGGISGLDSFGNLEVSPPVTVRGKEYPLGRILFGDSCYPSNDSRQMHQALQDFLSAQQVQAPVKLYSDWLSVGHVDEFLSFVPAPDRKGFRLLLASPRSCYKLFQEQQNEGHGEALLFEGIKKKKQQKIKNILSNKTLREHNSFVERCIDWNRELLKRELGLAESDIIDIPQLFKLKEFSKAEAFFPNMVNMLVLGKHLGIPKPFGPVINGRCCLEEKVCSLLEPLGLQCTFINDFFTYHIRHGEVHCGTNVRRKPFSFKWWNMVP

SMILES | IC50 [1] [nM] | IC50 [2] [nM]
COc1cc(C(=O)N2C[C@H](N)CC[C@@H]2C)cc2nc(-c3cc4ccc(N5C(=O)CCC5C)nc4n3CC3CC3)n(C)c12 (stereo partly drawn) [Example 280, 1-(2-(5-((2S,5R)-5-amino-2-methylpiperidine-1-carbonyl)-7-methoxy-1-methyl-1H-benzo[d]imidazol-2-yl)-1-(cyclopropylmethyl)-1H-pyrrolo[2,3-b]pyridin-6-yl)-5-methylpyrrolidin-2-one] | 531 | –
COc1cc(C(=O)N2C[C@H](N)CCN2C)cc2nc(-c3cc4ccc([C@@H](C)NC(=O)C5(c6ccc(F)cc6)CC5)nc4n3CC3CC3)n(C)c12 [Example 199, N-((R)-1-(2-(5-((R)-5-amino-2-methylhexahydropyridazine-1-carbonyl)-7-methoxy-1-methyl-1H-benzo[d]imidazol-2-yl)-1-(cyclopropylmethyl)-1H-pyrrolo[2,3-b]pyridin-6-yl)ethyl)-1-(4-fluorophenyl)cyclopropane-1-carboxamide] | 340 | –
COc1cc(C(=O)N2C[C@H](N)CCN2C)cc2nc(-c3cc4ccc([C@@H](C)NC(=O)C(C)(C)C)nc4n3CC3CC3)n(C)c12 [Example 161, N-((R)-1-(2-(5-((R)-5-amino-2-methylhexahydropyridazine-1-carbonyl)-7-methoxy-1-methyl-1H-benzo[d]imidazol-2-yl)-1-(cyclopropylmethyl)-1H-pyrrolo[2,3-b]pyridin-6-yl)ethyl)pivalamide] | 72.3 | –
COc1cc(C(=O)N2C[C@H](N)CC[C@@H]2C)cc2nc(-c3cc4ccc(-c5ccc6nnnn6c5C)nc4n3CC3CC3)n(C)c12 [Example 275, ((2S,5R)-5-amino-2-methylpiperidin-1-yl)(2-(1-(cyclopropylmethyl)-6-(5-methyltetrazolo[1,5-a]pyridin-6-yl)-1H-pyrrolo[2,3-b]pyridin-2-yl)-7-methoxy-1-methyl-1H-benzo[d]imidazol-5-yl)methanone] | 658 | –
COc1cc(C(=O)N2C[C@H](N)CCN2C)cc2nc(-c3cc4ccc([C@@H](C)NC(=O)[C@H](C)c5ccccc5)nc4n3CC3CC3)n(C)c12 [Example 164, (R)-N-((R)-1-(2-(5-((R)-5-amino-2-methylhexahydropyridazine-1-carbonyl)-7-methoxy-1-methyl-1H-benzo[d]imidazol-2-yl)-1-(cyclopropylmethyl)-1H-pyrrolo[2,3-b]pyridin-6-yl)ethyl)-2-phenylpropanamide] | 148 | –
COc1cc(C(=O)N2C[C@H](N)CCN2C)cc2nc(-c3cc4ccc([C@@H](C)NC(=O)c5nccc(C)n5)nc4n3CC3CC3)n(C)c12 [Example 181, N-((R)-1-(2-(5-((R)-5-amino-2-methylhexahydropyridazine-1-carbonyl)-7-methoxy-1-methyl-1H-benzo[d]imidazol-2-yl)-1-(cyclopropylmethyl)-1H-pyrrolo[2,3-b]pyridin-6-yl)ethyl)-4-methylpyrimidine-2-carboxamide] | 74.9 | –
COc1cc(C(=O)N2[C@H]3CC[C@@H]2[C@H](N)C3)cc2nc(-c3cc4ccc([C@@H](C)NC(=O)c5ccc(F)cc5)nc4n3CC3CC3)n(C)c12 [Example 208, N-((R)-1-(2-(5-((1R,2R,4S)-2-amino-7-azabicyclo[2.2.1]heptane-7-carbonyl)-7-methoxy-1-methyl-1H-benzo[d]imidazol-2-yl)-1-(cyclopropylmethyl)-1H-pyrrolo[2,3-b]pyridin-6-yl)ethyl)-4-fluorobenzamide] | 138 | –
COc1cc(C(=O)N2C[C@H](N)CCN2C)cc2nc(-c3cc4ccc([C@@H](C)NC(=O)C(F)(F)c5ccccc5)nc4n3CC3CC3)n(C)c12 [Example 167, N-((R)-1-(2-(5-((R)-5-amino-2-methylhexahydropyridazine-1-carbonyl)-7-methoxy-1-methyl-1H-benzo[d]imidazol-2-yl)-1-(cyclopropylmethyl)-1H-pyrrolo[2,3-b]pyridin-6-yl)ethyl)-2,2-difluoro-2-phenylacetamide] | 388 | –
COc1cc(C(=O)N2C[C@H](N)[C@@H]3CC[C@H]2C3)cc2nc(-c3cc4ccc([C@@H](C)NC(=O)c5cccnc5C(F)(F)F)nc4n3CC3CC3)n(C)c12 [Example 306, N-((R)-1-(2-(5-((1S,4R,5R)-4-amino-2-azabicyclo[3.2.1]octane-2-carbonyl)-7-methoxy-1-methyl-1H-benzo[d]imidazol-2-yl)-1-(cyclopropylmethyl)-1H-pyrrolo[2,3-b]pyridin-6-yl)ethyl)-2-(trifluoromethyl)nicotinamide] | – | 92.8
COc1cc(C(=O)N2C[C@H](N)[C@@H]3CC[C@H]2C3)cc2nc(-c3cc4ccc([C@@H](C)NC(=O)c5cnn(C(F)(F)F)c5)nc4n3CC3CC3)n(C)c12 [Example 320, N-((R)-1-(2-(5-((1S,4R,5R)-4-amino-2-azabicyclo[3.2.1]octane-2-carbonyl)-7-methoxy-1-methyl-1H-benzo[d]imidazol-2-yl)-1-(cyclopropylmethyl)-1H-pyrrolo[2,3-b]pyridin-6-yl)ethyl)-1-(trifluoromethyl)-1H-pyrazole-4-carboxamide] | – | 82.6
COc1cc(C(=O)N2C[C@H](N)CCN2C)cc2nc(-c3cc4ccc([C@@H](C)NC(=O)c5ccccc5C)nc4n3CC3CC3)n(C)c12 [Example 194, N-((R)-1-(2-(5-((R)-5-amino-2-methylhexahydropyridazine-1-carbonyl)-7-methoxy-1-methyl-1H-benzo[d]imidazol-2-yl)-1-(cyclopropylmethyl)-1H-pyrrolo[2,3-b]pyridin-6-yl)ethyl)-2-methylbenzamide] | 123 | –
COc1cc(C(=O)N2C[C@H](N)CCN2C)cc2nc(-c3cc4ccc([C@@H](C)NC(=O)c5c(F)cccc5C(F)(F)F)nc4n3CC3CC3)n(C)c12 [Example 198, N-((R)-1-(2-(5-((R)-5-amino-2-methylhexahydropyridazine-1-carbonyl)-7-methoxy-1-methyl-1H-benzo[d]imidazol-2-yl)-1-(cyclopropylmethyl)-1H-pyrrolo[2,3-b]pyridin-6-yl)ethyl)-2-fluoro-6-(trifluoromethyl)benzamide] | 166 | –
COc1cc(C(=O)N2C[C@H](N)CCN2C)cc2nc(-c3cc4ccc([C@@H](C)NC(=O)c5cnn(C)c5)nc4n3CC3CC3)n(C)c12 [Example 169, N-((R)-1-(2-(5-((R)-5-amino-2-methylhexahydropyridazine-1-carbonyl)-7-methoxy-1-methyl-1H-benzo[d]imidazol-2-yl)-1-(cyclopropylmethyl)-1H-pyrrolo[2,3-b]pyridin-6-yl)ethyl)-1-methyl-1H-pyrazole-4-carboxamide] | 47.8 | –

Next, values leading:

IC50 [1] [nM] | IC50 [2] [nM] | SMILES
92.7 | – | COc1cc(C(=O)N2CCC[C@@H](N)C2)cc2nc(-c3cc4ccc(N(C(F)F)S(=O)(=O)C5CC5)nc4n3CC3CC3)n(C)c12 [Example 27, (R)-N-(2-(5-(3-aminopiperidine-1-carbonyl)-7-methoxy-1-methyl-1H-benzo[d]imidazol-2-yl)-1-(cyclopropylmethyl)-1H-pyrrolo [2,3-b]pyridin-6-yl)-N-(difluoromethyl) cyclopropanesulfonamide]
82 | – | CCN(c1ccc2cc(-c3nc4cc(C(=O)N5CCC[C@@H](N)C5)cc(OC)c4n3C)n(CC3CC3)c2n1)S(=O)(=O)C1CC1 [Example 25, (R)-N-(2-(5-(3-aminopiperidine-1-carbonyl)-7-methoxy-1-methyl-1H-benzo[d]imidazol-2-yl)-1-(cyclopropylmethyl)-1H-pyrrolo [2,3-b]pyridin-6-yl)-N-ethylcyclopropanesulfonamide]
70.7 | – | COc1cc(C(=O)N2CCC[C@@H](N)C2)cc2nc(-c3cc4ccc([C@@H](C)NC(C)=O)nc4n3CC3CC3)n(C3CC3)c12 [Example 132, N-((R)-1-(2-(5-((R)-3-aminopiperidine-1-carbonyl)-1-cyclopropyl-7-methoxy-1H-benzo[d]imidazol-2-yl)-1-(cyclopropylmethyl)-1H-pyrrolo[2,3-b]pyridin-6-yl)ethyl)acetamide]
12700 | – | COc1cc(C(=O)N2CCCC(C)(N)C2)cc2nc(-c3cc4ccc(N(C(F)F)S(C)(=O)=O)nc4n3CC3CC3)n(C)c12 (centres unmarked) [Example 52, N-(2-(5-(3-amino-3-methylpiperidine-1-carbonyl)-7-methoxy-1-methyl-1H-benzo[d]imidazol-2-yl)-1-(cyclopropylmethyl)-1H-pyrrolo [2,3-b]pyridin-6-yl)-N-(difluoromethyl) methanesulfonamide]
78.6 | – | CCN(c1ccc2cc(-c3nc4cc(C(=O)N5CCC[C@@H](N)C5)cc(OC)c4n3C)n(CC3CC3)c2n1)S(C)(=O)=O [Example 5, (R)-N-(2-(5-(3-aminopiperidine-1-carbonyl)-7-methoxy-1-methyl-1H-benzo[d]imidazol-2-yl)-1-(cyclopropylmethyl)-1H-pyrrolo [2,3-b]pyridin-6-yl)-N-ethylmethanesulfonamide]
125 | – | COc1cc(C(=O)N2CCC[C@@H](N)C2)cc2nc(-c3cc4ccc(N(C)S(C)(=O)=O)nc4n3CC3CC3)n(CC3CC3)c12 [Example 23, (R)-N-(2-(5-(3-aminopiperidine-1-carbonyl)-1-(cyclopropylmethyl)-7-methoxy-1H-benzo[d]imidazol-2-yl)-1-(cyclopropylmethyl)-1H-pyrrolo[2,3-b]pyridin-6-yl)-N-methylmethanesulfonamide]
2130 | – | COc1cc(C(=O)N2C[C@H](N)CC[C@@H]2C)cc2nc(-c3cc4ccc(N(C(F)F)S(C)(=O)=O)nc4n3CC3CC3)n(C34CC(C3)C4)c12 [Example 48, N-(2-(5-((2S,5R)-5-amino-2-methylpiperidine-1-carbonyl)-1-(bicyclo[1.1.1]pentan-1-yl)-7-methoxy-1H-benzo[d]imidazol-2-yl)-1-(cyclopropylmethyl)-1H-pyrrolo[2,3-b]pyridin-6-yl)-N-(difluoromethyl) methane sulfonamide]
